Test results: the RepoRT retention time repository (doi:10.1016/j.aca.2011.12.065)
Where a name gives a salt, the structure may show the parent alone.

How the values were obtained:
[1] = RP, Waters ACQUITY UPLC HSS T3, 100 × 2.1 mm, 1.8 µm; A: water + 0.1% formic acid, pH 3; B: 30% methanol + 70% acetonitrile + 0.1% formic acid, pH 3; gradient (min/%B) 0.0/5 1.0/8 2.0/15 3.0/40 4.0/70 4.5/100 5.0/100 6.4/100 6.6/5.0 6.8/5.0 7.0/5.0; settings: stereoisomer not certain
[2] = RP, Waters ACQUITY UPLC BEH C18, 100 × 2.1 mm, 1.7 µm; A: water + 0.1% formic acid, pH 3; B: 80% acetonitrile + 20% acetone + 0.1% formic acid, pH 3; gradient (min/%B) 0/0 6/100; settings: stereoisomer not certain

Row | LC retention time [1] | LC retention time [2] | Compound
1 | 0.459 min | 0.561 min | NC(CCCNC1=NCC(=O)N1)C(=O)O (stereo unspecified)
2 | 4.05 min | 2.98 min | CC(CCC(=O)O)C1CCC2C3C(=O)CC4CC(=O)CCC4(C)C3CC(=O)C12C (stereo unspecified) [dehydrocholic acid]
3 | 3.63 min | 2.26 min | O=C(O)CCCCCCCC(=O)O [Azelaic acid]
4 | 0.459 min | 0.571 min | CC(NCCCCC(N)C(=O)O)C(=O)O (stereo unspecified) [CEL]
5 | 0.447 min | 0.546 min | NC(CSSCC(N)C(=O)O)C(=O)O (stereo not drawn) [l-cystine]
6 | 2.66 min | 1.54 min | O=C(O)C(O)Cc1ccc(O)cc1 (stereo not drawn) [(DL)-p-hydroxyphenyllactic acid]
7 | 0.531 min | 0.712 min | CNC(C)(C)C(=O)O [alfa-(methylamino)isobutyric acid]
8 | 0.51 min | 0.657 min | NC(CCCC(=O)O)C(=O)O (racemic) [dl-2-aminoadipic acid]
9 | 0.491 min | 0.603 min | NC(CS)C(=O)O (stereo not drawn) [l-cysteine]
10 | 4.47 min | 3.92 min | COC1=C(OC)C(=O)C(CC=C(C)C)=C(C)C1=O [coenzyme q1]
11 | 0.415 min | 0.517 min | NCCCC(N)C(=O)O (stereo not drawn) [l-ornithine monohydrochloride]
12 | 1.45 min | 1.28 min | Cn1c(=O)[nH]c(=O)c2[nH]cnc21 [3-methylxanthine]
13 | 3.13 min | 1.65 min | Cn1c(=O)c2c(ncn2C)n(C)c1=O [Caffeine]
14 | 0.468 min | 0.574 min | CNCC(=O)O [sarcosine]
15 | 0.619 min | 0.986 min | Nc1ccn(C2OC(CO)C(O)C2O)c(=S)n1 (stereo unspecified) [2-thiocytidine dihydrate]
16 | 0.539 min | 1.27 min | CC(C(=O)O)C(=O)O [Methylmalonic acid]
17 | 1.27 min | 1.28 min | Cn1c(=O)[nH]c2[nH]c(=O)[nH]c2c1=O [1-methyluric acid]
18 | 0.484 min | 0.585 min | CC1NC(=NCCCC(N)C(=O)O)NC1=O (stereo unspecified)
19 | 0.588 min | 0.719 min | O=C([O-])c1cc(=O)[nH]c(=O)[nH]1 [orotic acid]
20 | 0.467 min | 0.572 min | CN1CC(=O)NC1=N [Creatinine]
21 | 4.26 min | 2.85 min | CC(CCC(=O)NCCS(=O)(=O)O)C1CCC2C3C(O)CC4CC(O)CCC4(C)C3CC(O)C12C (stereo unspecified) [Taurocholic acid]
22 | 1.46 min | 1.39 min | CC(=O)CCC(=O)O [levulinic acid]
23 | 2.02 min | 1.43 min | O=C1CCC(C(=O)N2CCCC2C(=O)O)N1 (stereo unspecified) [pglu-pro]
24 | 1.2 min | 1.29 min | Nc1ccc(C(=O)NCC(=O)O)cc1 [p-aminohippuric acid]
25 | 0.722 min | 0.969 min | NC(=O)c1cccnc1 [nicotinamide]
26 | 0.44 min | 0.543 min | NC(CCCC(N)C(=O)O)C(=O)O (stereo unspecified) [2,6-diaminopimelic acid]

Row | LC retention time [1] | LC retention time [2] | Compound
27 | 0.731 min | 0.836 min | O=C1CCC(C(=O)O)N1 (stereo unspecified) [Pyroglutamic acid]
28 | 0.659 min | 0.785 min | O=C(O)CC(O)(CC(=O)O)C(=O)O [Citric acid]
29 | 0.479 min | 0.577 min | O=C(O)C1CC(O)CN1 (stereo not drawn) [trans-4-hydroxy-l-proline]
30 | 0.504 min | 0.661 min | OCC1OC(OC2(CO)OC(CO)C(O)C2O)C(O)C(O)C1O (stereo unspecified) [sucrose]
31 | 0.706 min | 0.882 min | O=c1[nH]cnc2nc[nH]c12 [hypoxanthine]
32 | 3.1 min | 1.77 min | O=C(O)CNC(=O)c1ccccc1 [Hippuric acid]
33 | 3.74 min |  | O=c1c(O)c(-c2ccc(O)c(O)c2)oc2cc(O)cc(O)c12 [quercetin]
34 | 2.14 min | 1.37 min | Cn1cnc2c1c(=O)[nH]c(=O)n2C [theobromine]
35 | 0.437 min |  | NCCC(=O)NC(Cc1cnc[nH]1)C(=O)O (stereo unspecified) [carnosine]
36 | 4.51 min | 4 min | CC(C)c1cc2c(c(O)c1O)C13CCCC(C)(C)C1CC2OC3=O (stereo unspecified) [carnosol]
37 | 1.63 min | 1.3 min | Cn1cnc2c(ncn2C2OC(CO)C(O)C2O)c1=N (stereo unspecified) [1-methyladenosine]
38 | 2.95 min | 1.7 min | O=C(O)C1OC(Oc2c[nH]c3ccccc23)C(O)C(O)C1O (stereo not drawn) [indoxyl beta-d-glucuronide cyclohexylammonium salt]
39 | 4.46 min | 3.33 min | CC(CCC(=O)NCCS(=O)(=O)O)C1CCC2C3CCC4CC(O)CCC4(C)C3CC(O)C12C (stereo unspecified) [taurodeoxycholic acid]
40 | 3.1 min |  | CC(C)C1NC(=O)C2CCCN2C1=O (stereo unspecified) [cyclo-(pro-val)]
41 | 0.468 min | 0.576 min | NCCS(=O)O [hypotaurine]
42 | 0.857 min | 1.34 min | Nc1ncnc2c1ncn2C1OC(CO)C(O)C1O (stereo unspecified) [Adenosine]
43 | 3.84 min | 2.61 min | CC12CCC(=O)C=C1CCC1C2C(=O)CC2(C)C1CCC2(O)C(=O)CO (stereo unspecified) [Cortisone]
44 | 4.72 min | 4.5 min | CCCCCCCCC=CCCCCCCCC(=O)OCC(O)COP(=O)([O-])OCC[N+](C)(C)C (stereo unspecified) [lysoPC(18:1(9Z)/0:0)]
45 | 3.23 min | 1.71 min | CC(=O)Nc1ccc(C(=O)O)cc1 [4-acetamidobenzoic acid]
46 | 4.46 min | 3.4 min | CC(CCC(=O)O)C1CCC2C3C(O)CC4CC(O)CCC4(C)C3CC(O)C12C (stereo unspecified) [Cholic acid]
47 | 3.24 min |  | CC(=O)NC(CSC(=S)NCCCCS(C)=O)C(=O)O (stereo unspecified) [sulforaphane-n-acetylcysteine]
48 | 3.87 min | 2.63 min | CC12CCC(=O)C=C1CCC1C2C(O)CC2(C)C1CCC2(O)C(=O)CO (stereo unspecified) [hydrocortisone, cortisol]
49 | 0.47 min | 0.575 min | NC(=O)NCCCC(N)C(=O)O (stereo unspecified) [Citrulline]
50 | 3.46 min |  | O=C(Cc1c[nH]c2ccccc12)OC1OC(C(=O)O)C(O)C(O)C1O (stereo unspecified) [indole-3-acetic acid-glucuronide]
51 | 3.42 min |  | O=C(OC1OC(C(=O)O)C(O)C(O)C1O)c1c[nH]c2ccccc12 (stereo unspecified) [indole-3-carboxylic acid glucuronide]
52 | 0.457 min |  | C[N+](C)(C)CC(O)CC(=O)[O-] (stereo not drawn) [l-carnitine inner salt]

Row | LC retention time [1] | LC retention time [2] | Compound
53 | 3.63 min |  | O=C(O)Cc1c[nH]c2ccccc12 [3-indoleacetic acid]
54 | 1.92 min |  | CC(C)C(=O)C(=O)O [alpha-ketoisovaleric acid]
55 | 3.81 min |  | C=C(C)C1CC=C(C(=O)O)CC1 (stereo unspecified) [perillic acid]
56 | 3.46 min |  | Cc1cc(C(=O)O)ccc1O [4-hydroxy-3-methylbenzoic acid]
57 | 1.55 min |  | Cn1c(=O)[nH]c(=O)c2c1[nH]c(=O)n2C [3,7-dimethyluric acid]
58 | 0.561 min |  | O=C1OC(C(O)CO)C(O)=C1O (stereo unspecified) [Ascorbic acid]
59 | 0.483 min |  | OCC(O)C(O)C(O)C(O)CO (stereo not drawn) [d(-)-mannitol]
60 | 0.91 min |  | O=C(O)C1OC(Oc2ccc(O)cc2)C(O)C(O)C1O (stereo unspecified) [hydroquinone-glucuronide]
61 | 3.75 min |  | O=c1cc(-c2ccc(O)c(O)c2)oc2cc(O)cc(O)c12 [luteolin]
62 | 0.638 min |  | C=CCS(=O)CC(N)C(=O)O (stereo unspecified) [aliin]
63 | 0.829 min |  | O=C(O)C(O)c1ccc(O)c(O)c1 (stereo unspecified) [dihydroxymandelic acid]
64 | 2.54 min |  | CC(C)C(O)C(=O)O (stereo unspecified) [2-hydroxyisovaleric acid]
65 | 2.81 min |  | O=C(O)C1OC(Oc2ccccc2O)C(O)C(O)C1O (stereo unspecified) [Pyrocatechol glucuronide]
66 | 1.08 min |  | Cn1c(=O)[nH]c2[nH]c(=O)[nH]c(=O)c21 [7-methyluric acid]
67 | 1.25 min |  | Cn1cnc2[nH]c(=O)[nH]c(=O)c21 [7-methylxanthine]
68 | 3.44 min |  | CC(O)CC(=O)O (stereo unspecified) [3-hydroxybutyric acid]
69 | 0.666 min |  | CC(=O)Nc1c(N)[nH]c(=O)n(C)c1=O [aamu]
70 | 0.491 min |  | NCCCC(=O)O [gamma-aminobutyric acid]
71 | 0.468 min |  | C[N+](C)(C)[O-] [TMAO]
72 | 3.03 min |  | c1coc(CNc2ncnc3nc[nH]c23)c1 [kinetin]
73 | 5.51 min |  | CCC=CCC=CCC=CCC=CCC=CCC=CCCC(=O)OC(COC(=O)CCCCCCCCCCCCCCCCC)COP(=O)([O-])OCC[N+](C)(C)C (stereo unspecified) [pc(18:0/22:6)]
74 | 0.543 min |  | C[N+]1(C)CCCC1C(=O)[O-] (stereo unspecified) [proline betaine]
75 | 3.38 min |  | O=C(O)CNC(=O)Cc1ccccc1 [phenylacetylamino-acetic acid]
76 | 4.81 min |  | CCCCCCCCC=CCCCCCCCC(N)=O [oleamide]
77 | 3.69 min |  | COc1ccc(O)c(C(=O)O)c1 [2-hydroxy-5-methoxylbenzoic acid]
78 | 3.81 min |  | CC12C=Cc3occc3C1CCC13CC(CCC12)C(O)(CO)C3 (stereo unspecified) [kahweol]

Row | Compound | LC retention time [1] | LC retention time [2]
79 | O=C(O)Cc1ccccc1 [Phenylacetic acid] | 0.861 min | 1.19 min
80 | CC12CCC(=O)C=C1CCC1C2CCC2(C)C(O)CCC12 (stereo unspecified) [testosterone] | 4.32 min | 
